Entries after “also recorded” stand apart in the source; their conditions may differ. Where no end group is shown, it is not given here.
What was measured:
[1] = tested on: HeLa cells pre-infected with L2; assay: Secondary EB infection of pre-infected HeLa cells (Tarp translocation, stability, EB entry); assay type: cell-based, C. trachomatis
Experimental: FIG. 8 depicts (A-C(I-IV)) Tarp translocated by EBs is a target of CPAF-mediated degradation. Uninfected and HeLa cells pre-infected with L2 for 30 hrs were treated with inhibitory peptides and infected with EBs for 10 min Tarp translocation was indirectly visualized with an anti-phosphotyrosine antibody (A) and quantified by counting 50 separate cells (B). The stability of newly translocated Tarp was assessed by infecting cells as in (A) but with S^35-labeled EBs, followed by sequential immunoprecipitation of Tarp and MOMP and Phosphoimager analysis of precipitated material (C (I-IV)). Tarp is degraded in pre-infected HeLa cells in a CPAF-dependent manner. (D) Effective inhibition of CPAF activity by inhibitory peptide. IC50 values were determined by assessing CPAF cleavage of an Abz-tagged CPAF substrate (SEQ ID NO:9) by HPLC. Assays were performed the presence of increasing amount of inhibitors. […] CPAF cleavage of GST-chlamydial substrates was performed as in FIG. 4B but in the presence of SEQ ID NO:7 and SEQ ID NO:11 peptides (E). For in vivo inhibition effects on Chlamydia (L2), infected HeLa cells were treated with peptides at 12 hpi, and harvested at 30 hpi (F). […] (G and H) CPAF restricts EB entry into preinfected cells. Cells were infected as in (A), except that the secondary infections (30 min) were performed with fluorescently labeled EBs and infected cells were not permeabilized. […] Extracellular bacteria were determined. […] The number of internalized EBs was quantified per cell (H). […]
Next, HeLa cells or inclusion-containing HeLa cells were infected with ^35S-radiolabeled EBs, followed by immunoprecipitation of Tarp at various times after infection to determine the stability of translocated Tarp under these conditions. […] Tarp and MOMP were immunoprecipitated using anti-Tarp and anti-MOMP protein A sepharose beads (available from GE Healthcare), detected in a Typhoon9410 Variable Image Phosphor Imager (available from Amersham Biosciences), and quantified using ImageQuant 5.1TL software (available from GE Healthcare). […]

C. caviae CPAF = assay: GST-IncC cleavage by lysate of C. caviae (GPIC) infected cells; assay type: biochemical; details: infected whole cell lysate
Experimental: Cells were infected with an MOI of 1 and treated with CPAF inhibitor (SEQ ID NO:7) or control (SEQ ID NO:11) peptides at 12 hpi, fixed at 24 hpi and analyzed by IF with anti-L2 polyclonal antisera. Inclusion size was determined by measuring the inclusion diameter in μm by confocal microscopy of 50 infected cells. The number of cells with fragmented inclusions was determined by counting the number of infected cells out of 50 with more than one inclusion. (C) Sequence alignment and % sequence identify of full length CPAF and predicted inhibitory peptide sequence between C. trachomatis serovar LGV-L2, Chlamydia muridarum, and Chlamydophila caviae was determined using Geneious software (available at the Geneious website). […] GPIC or C. muridarum infected whole cell protein lysate was preincubated with SEQ ID NO:7 peptide or SEQ ID NO:11 control peptide, mixed with GST-IncC at 37° C., resolved by SDS-PAGE and stained with Coomassie blue. […] Inhibition of C. muridarum (E) and C. ceviae (F) growth was determined by counting the number of recovered IFUs. […] Inclusions were detected by IF with anti-LGV-L2 (A, B, E) antisera or anti-chlamydial LPS (F) monoclonal antibodies, and host nuclei sere detected by staining.

[2] = tested on: Chlamydia-infected HeLa cells; assay: Apoptosis markers (AnnexinV staining, Caspase-3 cleavage) in infected HeLa cells; assay type: cell-based, C. trachomatis; details: peptide 12.5 μM at 12 hpi
Experimental: FIG. 11 depicts (A) that inhibiting CPAF activity induces host cell death. The indicated peptides (anti-CPAF peptide refers to SEQ ID NO:7) were added to infected cells 12 hpi and the percentage of infected cells with condensed nuclei was quantified at the indicated times. (B-C) Inhibition of CPAF activity induces apoptosis. Infected cells were treated with peptides and the percentage of AnnexinV-FITC positive (propidium iodide (PI) negative) was determined by flow cytometry (B). In parallel samples, cleavage of Caspase-3, a hallmark of apoptosome activation, was monitored by immunoblot analysis. Actin and MOMP are host and bacterial loading controls respectively. […] Infected cells were treated as in (A) in the presence or absence of ZVAD-FMK, labeled with PI and analyzed by flow cytometry. […]
Subsequent experiments tested whether CPAF inhibition led to the onset of apoptosis in infected cells. […] Apoptotic cells were identified with an AnnexinV-FLOUS Staining Kit (available from Roche) and activation of Caspase-1 was determined by labeling active Caspase-1 with a Carboxyfluorescein FLICA Detection Kit (available from Immunochemistry) and analyzed in a FACScanner (available from BD Biosciences). […] Consistent with result, Caspase-3 cleavage, another characteristic of apoptotic cell death, was not detected (FIG. 11C).

SLFYSPMVPHFWAELRNHYATSGLKRRRRRRRRR-NH2 [SEQ ID NO:7]
Accumulation of Tyr-phosphorylated proteins at EB attachment sites ([1]; pre-infected HeLa cells (30 h), 12 μM peptide): restored the accumulation | Degradation of Tarp in pulse-chase experiments ([1]; pre-infected HeLa cells, 35S-labeled EBs, 12 μM peptide): blocked the degradation of Tarp | EB entry into preinfected cells ([1]; secondary infection 30 min, labeled EBs): increased EB entry | Inhibition of C. caviae CPAF (C. caviae CPAF): not sensitive to inhibition; also recorded: but not C. ceviae CPAF | AnnexinV staining of infected cells [2]: did not stain for AnnexinV | Caspase-3 cleavage in infected cells ([2]; immunoblot): not detected
